Data taken from the supplement of paper PMC9337992.
± gives the standard deviation of the averaged measurements.

Columns and labels:
Assay in all cases: cell confluence relative to DMSO control; higher = less growth inhibition
Details in all cases: 5 d
SUM159 = test system: SUM159
Experimental: (§1)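 MS023 dose-response (9 concentrations, 40 nM to 10 uM) across TNBC cell lines. Cell confluence was monitored by IncuCyte live-cell imaging for 5 d and normalised to DMSO; n = 4 replicates.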

MX1 = test system: MX1
Experimental: as §1

CAL85-1 = test system: CAL85-1
Experimental: as §1

HCC38 = test system: HCC38
Experimental: as §1

BT20 = test system: BT20
Experimental: as §1

SUM149 = test system: SUM149
Experimental: as §1

BT549 = test system: BT549
Experimental: as §1

HCC1395 = test system: HCC1395
Experimental: as §1

MDA-MB-157 = test system: MDA-MB-157
Experimental: as §1

MDAMB231 = test system: MDAMB231
Experimental: as §1

HCC1806 = test system: HCC1806
Experimental: as §1

HCC70 = test system: HCC70
Experimental: as §1

MDA-MB468 = test system: MDA-MB468
Experimental: as §1

HCC1143 = test system: HCC1143
Experimental: as §1

HCC3153 = test system: HCC3153
Experimental: as §1

Hs578T = test system: Hs578T
Experimental: as §1

CAL120 = test system: CAL120
Experimental: as §1

MDA-MB436 = test system: MDA-MB436
Experimental: as §1

CC(C)Oc1ccc(-c2c[nH]cc2CN(C)CCN)cc1 [MS023]
cell confluence [%]
Details | log10 MS023 concentration (log10 uM): 0.09691 | log10 MS023 concentration (log10 uM): 0.39794 | log10 MS023 concentration (log10 uM): 0.69897 | log10 MS023 concentration (log10 uM): 1 | log10 MS023 concentration (log10 uM): -0.20412 | log10 MS023 concentration (log10 uM): -0.50515 | log10 MS023 concentration (log10 uM): -0.80618 | log10 MS023 concentration (log10 uM): -1.10721 | log10 MS023 concentration (log10 uM): -1.40824
BT20 | 102 ± 5 | 98.2 ± 8.7 | 99.8 ± 4.7 | 91.7 ± 13 | 100 ± 5.7 | 102 ± 6 | 101 ± 5.1 | 93.8 ± 11 | 96.5 ± 5.5
BT549 | 91.8 ± 8.3 | 85.7 ± 7.7 | 61.5 ± 7.5 | 53.4 ± 7.6 | 99.5 ± 3 | 97.3 ± 8 | 103 ± 3.4 | 109 ± 8.2 | 98.8 ± 4.6
CAL85-1 | 84.2 ± 3.2 | 70.6 ± 3 | 59.1 ± 5.1 | 39.6 ± 1.6 | 95.4 ± 3 | 98.7 ± 1.4 | 99.6 ± 2.4 | 98.1 ± 1.3 | 96 ± 3.2
CAL120 | 100.06 ± 0.081 | 100.1 ± 0.14 | 100 ± 0.21 | 99.59 ± 0.47 | 100.2 ± 0.23 | 99.99 ± 0.22 | 100.2 ± 0.18 | 100 ± 0.26 | 100.1 ± 0.12
HCC38 | 95.7 ± 1 | 86.4 ± 5 | 76.9 ± 6.4 | 60.3 ± 8.9 | 98.1 ± 1.6 | 99.1 ± 1.1 | 100 ± 0.42 | 100.3 ± 0.22 | 100.1 ± 0.28
HCC70 | 73.3 ± 10 | 67.8 ± 7.8 | 54.4 ± 3.4 | 39.5 ± 0.84 | 86 ± 12 | 80 ± 12 | 91.3 ± 11 | 89.3 ± 5.6 | 96.6 ± 4.4
HCC1143 | 84.3 ± 6.3 | 52.5 ± 5.2 | 26 ± 5.3 | 21.1 ± 2.3 | 82.8 ± 10 | 89.9 ± 9.1 | 96.6 ± 2.6 | 100 ± 1.2 | 98.5 ± 2.5
HCC1395 | 101 ± 8 | 92.8 ± 13 | 70.3 ± 9.2 | 53.3 ± 3.7 | 102 ± 9.3 | 107 ± 9.3 | 107 ± 9 | 108 ± 9.3 | 108 ± 9.2
HCC1806 | 94.2 ± 3 | 97.4 ± 3.8 | 84.6 ± 2.5 | 66.6 ± 9.3 | 100 ± 1.9 | 100 ± 2.4 | 100 ± 3.6 | 101 ± 2.7 | 103 ± 1.8
HCC3153 | 95 ± 1.1 | 85.4 ± 2.5 | 67.3 ± 2.6 | 51.9 ± 3.1 | 98.1 ± 1.2 | 98.44 ± 0.83 | 99.3 ± 2.1 | 99.5 ± 1.1 | 98.93 ± 0.56
Hs578T | 99.47 ± 0.24 | 97.79 ± 0.78 | 89.9 ± 1.9 | 79.6 ± 7.6 | 99.79 ± 0.14 | 99.921 ± 0.051 | 99.933 ± 0.042 | 99.898 ± 0.054 | 99.921 ± 0.051
MDA-MB436 | 70.9 ± 13 | 33.6 ± 5.4 | 24.4 ± 2.2 | 22.9 ± 3.1 | 78.1 ± 3.8 | 82.9 ± 8.3 | 97.9 ± 8.7 | 96.2 ± 11 | 100 ± 2.5
MDA-MB468 | 58.7 ± 3.8 | 35.8 ± 2.1 | 36.3 ± 3.1 | 25.3 ± 3.6 | 79.5 ± 4.7 | 95.1 ± 4.7 | 94.8 ± 5.9 | 96.2 ± 5.2 | 98.5 ± 7
MDA-MB-157 | 93.1 ± 6.2 | 93.3 ± 8.1 | 88.9 ± 7 | 81.4 ± 8.7 | 95.6 ± 11 | 101 ± 8.3 | 99.7 ± 1.9 | 100 ± 6 | 98.2 ± 3.8
MDAMB231 | 96.77 ± 0.61 | 88.2 ± 3.7 | 71 ± 3.9 | 61.1 ± 3.6 | 99.56 ± 0.35 | 99.8 ± 0.07 | 99.9 ± 0.1 | 99.943 ± 0.053 | 99.978 ± 0.014
MX1 | 93.6 ± 1 | 83.1 ± 1.4 | 48.8 ± 3.2 | 33.3 ± 1.8 | 95.8 ± 1.8 | 100 ± 1.4 | 99.8 ± 1.8 | 97.8 ± 3.8 | 98.4 ± 1.6
SUM149 | 94.1 ± 6.1 | 79.9 ± 12 | 53.5 ± 17 | 38.4 ± 8.9 | 99.14 ± 0.98 | 98.7 ± 2.5 | 97.9 ± 4.1 | 99.1 ± 1.7 | 95.4 ± 7.5
SUM159 | 93 ± 9 | 49.6 ± 14 | 25.1 ± 6.7 | 26.3 ± 8.2 | 98.2 ± 1.8 | 99.11 ± 0.49 | 99.03 ± 0.93 | 99.4 ± 1 | 98.1 ± 3
